Assays:
[1] = test system: neointima formation; conditions: rats; cited from earlier work
[2] = target: Cdk9/cyclinT1 (Homo sapiens, UniProt P50750); assay: Cdk9/cyclinT1 kinase assay (IMAP or Alpha Screen protocol)
Sequence of Cdk9/cyclinT1 (P50750 whole entry): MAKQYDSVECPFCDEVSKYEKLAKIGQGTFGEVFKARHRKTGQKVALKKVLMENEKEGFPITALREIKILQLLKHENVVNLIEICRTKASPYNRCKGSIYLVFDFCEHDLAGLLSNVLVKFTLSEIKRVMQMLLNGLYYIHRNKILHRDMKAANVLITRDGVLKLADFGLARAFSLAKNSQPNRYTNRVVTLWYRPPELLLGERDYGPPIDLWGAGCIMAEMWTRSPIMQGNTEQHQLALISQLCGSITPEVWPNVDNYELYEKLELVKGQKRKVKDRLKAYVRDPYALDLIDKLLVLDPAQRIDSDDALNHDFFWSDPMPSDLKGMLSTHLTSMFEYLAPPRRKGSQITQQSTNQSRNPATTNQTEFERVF
Sequence of Cdk9/cyclinT1 (O60563 whole entry partner): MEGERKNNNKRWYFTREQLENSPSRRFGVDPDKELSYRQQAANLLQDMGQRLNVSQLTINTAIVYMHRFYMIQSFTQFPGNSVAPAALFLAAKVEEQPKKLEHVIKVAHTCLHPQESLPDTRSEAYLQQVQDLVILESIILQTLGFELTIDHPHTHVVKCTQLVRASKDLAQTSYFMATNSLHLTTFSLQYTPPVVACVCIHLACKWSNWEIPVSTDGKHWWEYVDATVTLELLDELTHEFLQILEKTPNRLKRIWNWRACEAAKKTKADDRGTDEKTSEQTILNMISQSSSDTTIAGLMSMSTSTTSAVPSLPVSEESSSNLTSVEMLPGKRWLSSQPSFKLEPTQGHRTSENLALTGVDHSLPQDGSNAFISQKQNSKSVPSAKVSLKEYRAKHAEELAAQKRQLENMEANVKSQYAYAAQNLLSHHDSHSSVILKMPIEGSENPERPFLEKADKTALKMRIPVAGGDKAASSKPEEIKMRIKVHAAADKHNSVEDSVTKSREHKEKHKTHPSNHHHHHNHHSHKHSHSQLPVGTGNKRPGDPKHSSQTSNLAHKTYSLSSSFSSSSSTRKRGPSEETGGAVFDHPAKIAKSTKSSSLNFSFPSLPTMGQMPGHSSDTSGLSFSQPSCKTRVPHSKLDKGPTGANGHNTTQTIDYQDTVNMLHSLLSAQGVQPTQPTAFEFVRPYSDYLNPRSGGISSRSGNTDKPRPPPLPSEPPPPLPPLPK
Description: Cdk9/cyclinT1 IMAP Protocol
Cdk9/cyclinT1 is purchased from Millipore, cat #14-685. The final total protein concentration in the assay 4 nM. […] The final concentration of peptide substrate is 100 nM. The ATP substrate (Adenosine-5′-triphosphate) is purchased from Roche Diagnostics, cat#1140965. The final concentration of ATP substrate is 6 uM. IMAP (Immobilized Metal Assay for Phosphochemicals) Progressive Binding reagent is purchased from Molecular Devices, cat#R8139. Fluorescence polarization (FP) is used for detection. The 5TAMRA-cdk7tide peptide is phosphorylated by Cdk9/cyclinT1 kinase using the ATP substrate.
The Phospho-5TAMRA-cdk7tide peptide substrate is bound to the IMAP Progressive Binding Reagent. The binding of the IMAP Progressive Binding Reagent changes the fluorescence polarization of the 5TAMRA-cdk7tide peptide which is measured at an excitation of 531 nm and FP emission of 595 nm. Assays are carried out in 100 mM Tris, pH=7.2, 10 mM MgCl2, 0.05% NaN3, 0.01% Tween-20, 1 mM dithiothreitol and 2.5% dimethyl sulfoxide. IMAP Progressive Binding Reagent is diluted 1:800 in 100% 1× Solution A from Molecular Devices, cat#R7285.
General protocol is as follows: To 10 uL of cdk9/cyclinT1, 0.5 uL of test compound in dimethyl sulfoxide is added. 5TAMRA-cdk7tide and ATP are mixed. 10 uL of the 5TAMRA-cdk7tide/ATP mix is added to start the reaction. The reaction is allowed to proceed for 4.5 hrs. 60 uL of IMAP Progressive Binding Reagent is added. After >1 hr of incubation, plates are read on the Envision 2101 from Perkin-Elmer. The assay is run in a 384-well format using black Corning plates, cat#3573.
Cdk9/cyclinT1 Alpha Screen Protocol
Full length wild type Cdk9/cyclin T1 is purchased from Invitogen, cat#PV4131. The final total protein concentration in the assay 1 nM. […] The final concentration of cdk7tide peptide substrate is 200 nM. The ATP substrate (Adenosine-5′-triphosphate) is purchased from Roche Diagnostics. The final concentration of ATP substrate is 6 uM. Phospho-Rpb1 CTD (ser2/5) substrate antibody is purchased from Cell Signaling Technology. The final concentration of antibody is 0.67 ug/mL. The Alpha Screen Protein A detection kit containing donor and acceptor beads is purchased from PerkinElmer Life Sciences. The final concentration of both donor and acceptor beads is 15 ug/mL. Alpha Screen is used for detection. The biotinylated-cdk7tide peptide is phosphorylated by cdk9/cyclinT1 using the ATP substrate. The biotinylated-cdk7tide peptide substrate is bound to the streptavidin coated donor bead. The antibody is bound to the protein A coated acceptor bead. The antibody will bind to the phosphorylated form of the biotinylated-cdk7tide peptide substrate, bringing the donor and acceptor beads into close proximity. Laser irradiation of the donor bead at 680 nm generates a flow of short-lived singlet oxygen molecules. When the donor and acceptor beads are in close proximity, the reactive oxygen generated by the irradiation of the donor beads initiates a luminescence/fluorescence cascade in the acceptor beads. This process leads to a highly amplified signal with output in the 530-620 nm range. Assays are carried out in 50 mM Hepes, pH=7.5, 10 mM MgCl2, 0.1% Bovine Serum Albumin, 0.01% Tween-20, 1 mM Dithiolthreitol, 2.5% Dimethyl Sulfoxide. Stop and detection steps are combined using 50 mM Hepes, pH=7.5, 18 mM EDTA, 0.1% Bovine Serum Albumin, 0.01% Tween-20.
General protocol is as follows: To 5 uL of cdk9/cyclinT1, 0.25 uL of test compound in dimethyl sulfoxide is added. Cdk7tide peptide and ATP are mixed. 5 uL of the cdk7tide peptide/ATP mix is added to start the reaction. The reaction is allowed to proceed for 5 hrs. 10 uL of Ab/Alpha Screen beads/Stop-detection buffer is added. Care is taken to keep Alpha Screen beads in the dark at all times.

| Structure (SMILES) | inhibition of neointima formation [1] | IC50 [2] |
| --- | --- | --- |
| COc1ccc(CNc2nc(N(CCO)CCO)nc3c2ncn3C(C)C)cc1 [CVT-313] | greater than 80% | – |
| O=C(Nc1cc(-c2ccccc2)c(Cl)cn1)[C@@H]1CCCNC1 [Example 1, (R)—N-(5-chloro-4-phenylpyridin-2-yl)piperidine-3-carboxamide] | – | 20 nM |
| O=C(Nc1cc(-c2cccc(F)c2)c(Cl)cn1)[C@@H]1CCCNC1 [Example 2, (R)-Piperidine-3-carboxylic acid [5-chloro-4-(3-fluoro-phenyl)-pyridin-2-yl]-amide] | – | 10 nM |
| COc1ccccc1-c1cc(NC(=O)[C@@H]2CCCNC2)ncc1Cl [Example 3, (R)-Piperidine-3-carboxylic acid [5-chloro-4-(2-methoxy-phenyl)-pyridin-2-yl]-amide] | – | < 8 nM |
| COc1ccc(F)cc1-c1cc(NC(=O)[C@@H]2CCCNC2)ncc1Cl [Example 4, (R)—N-(5-Chloro-4-(5-fluoro-2-methoxyphenyl)pyridin-2-yl)piperidine-3-carboxamide] | – | < 8 nM |
| CC(C)Oc1ccc(F)cc1-c1cc(NC(=O)[C@@H]2CCCNC2)ncc1Cl [Example 5, (R)-Piperidine-3-carboxylic acid [5-chloro-4-(5-fluoro-2-isopropoxy-phenyl)-pyridin-2-yl]-amide] | – | 2 nM |
| O=C(Nc1cc(-c2cccc(OCc3cccc(F)c3)c2)c(Cl)cn1)[C@@H]1CCCNC1 [Example 6, (R)-Piperidine-3-carboxylic acid {5-chloro-4-[3-(3-fluoro-benzyloxy)-phenyl]-pyridin-2-yl}-amide] | – | < 8 nM |
| O=C(Nc1cc(-c2cccc(NCC3CCOCC3)c2)c(Cl)cn1)[C@@H]1CCCNC1 [Example 7, (R)—N-(5-chloro-4-(3-(((tetrahydro-2H-pyran-4-yl)methyl)amino)phenyl)pyridin-2-yl)piperidine-3-carboxamide] | – | < 8 nM |
| O=C(Nc1cc(-c2cccc(NCC3CCOCC3)c2)c(Cl)cn1)[C@H]1CCCNC1 [Example 8, (S)-Piperidine-3-carboxylic acid (5-chloro-4-{3-[(tetrahydro-pyran-4-ylmethyl)-amino]-phenyl}-pyridin-2-yl)-amide] | – | 23 nM |
| O=C(Nc1cc(-c2cc(F)cc(NCC3CCOCC3)c2)c(Cl)cn1)[C@@H]1CCCNC1 [Example 9, (R)—N-(5-Chloro-4-(3-fluoro-5-(((tetrahydro-2H-pyran-4-yl)-methyl)amino)phenyl)-pyridin-2-yl)piperidine-3-carboxamide] | – | < 8 nM |
| CC(C)(C)OC(=O)N1CCC[C@@H](C(=O)Nc2cc(-c3cc(F)cc(NCC4CCOCC4)c3)c(Cl)cn2)C1 [Example 10, (R)-3-(5-Chloro-4-{3-fluoro-5-[(tetrahydro-pyran-4-ylmethyl)-amino]-phenyl}-pyridin-2-ylcarbamoyl)-piperidine-1-carboxylic acid tert-butyl ester] | – | 11 nM |
| O=C(Nc1cc(-c2cc(F)cc(NCC3CCOCC3)c2)c(Cl)cn1)[C@H]1CCCNC1 [Example 11, (S)-Piperidine-3-carboxylic acid (5-chloro-4-{3-fluoro-5-[(tetrahydro-pyran-4-ylmethyl)-amino]-phenyl}-pyridin-2-yl)-amide] | – | 11 nM |
| O=C(Nc1cc(-c2cc(NCC3CCOCC3)ccc2F)c(Cl)cn1)[C@@H]1CCCNC1 [Example 12, (R)-Piperidine-3-carboxylic acid (5-chloro-4-{2-fluoro-5-[(tetrahydro-pyran-4-ylmethyl)-amino]-phenyl}-pyridin-2-yl)-amide] | – | < 8 nM |
| O=C(Nc1cc(-c2ccc(Cl)c(NCC3CCOCC3)c2)c(Cl)cn1)[C@@H]1CCCNC1 [Example 13, (R)—N-(5-Chloro-4-(4-chloro-3-(((tetrahydro-2H-pyran-4-yl)methyl)amino)phenyl)-pyridin-2-yl)piperidine-3-carboxamide] | – | < 8 nM |
| O=C(Nc1cc(-c2cc(F)cc(NCC3CCOCC3)c2)c(Cl)cn1)C1CNCCO1 (stereo not shown) [Example 14, Morpholine-2-carboxylic acid (5-chloro-4-{3-fluoro-5-[(tetrahydro-pyran-4-ylmethyl)-amino]-phenyl}-pyridin-2-yl)-amide] | – | < 8 nM |
| O=C(Nc1cc(-c2cc(NCC3CCOCC3)ccc2F)c(Cl)cn1)[C@H]1CNCCO1 [Example 15, (R)-Morpholine-2-carboxylic acid (5-chloro-4-{2-fluoro-5-[(tetrahydro-pyran-4-ylmethyl)-amino]-phenyl}-pyridin-2-yl)-amide] | – | 16 nM |

— patent US20120157433A1, “Heteroaryl Compounds as Kinase Inhibitors” (priority 2009, published 2012)
